Calls of active or inactive are those of the source. How the calls were made is not given here.

A short description of this test: non-covalent RecA intein splicing inhibitors, dose response, biochemical, cell-free, fluorescence, secondary screen (AID 449750).
With `C#CC(=O)N(c1cc(OC)ccc1OC)C(C(=O)NC1CCCC1)c1cccs1` (stereo not drawn), the AC50 was 2.35 µM.

With `COc1ccccc1NC(=O)CSc1nc2c(sc3ccccc32)c(=O)n1CCN(C)C`, the AC50 is > 38 µM (inactive).

Consider `COC(=O)C(O)(c1c(C)[nH]n(-c2ccccc2)c1=O)C(F)(F)F` (stereo not drawn), for which the AC50 is 5.49 µM.

As for `COC(=O)c1ccccc1S(=O)(=O)N1CCC(NC(=O)c2ccccc2)CC1`, the AC50 is > 38 µM (inactive).

On to `O=C1CCN(S(=O)(=O)c2ccccc2)N1`, for which the AC50 is > 38 µM (inactive).

Consider `CCOC(=O)C1Nc2c(F)cc(C)cc2C2c3ccccc3CC12` (stereo not drawn), for which the AC50 is 33.7 µM.

Take `CN(C(=O)C(Cl)Cl)c1ccc(OC(=O)c2ccco2)cc1`: the AC50 was > 38 µM (inactive).

As for `O=S(=O)(c1ccc(Cl)cc1)c1snnc1-c1ccccc1`, the AC50 is > 38 µM (inactive).

`CC(C)=CCC1=C(OCC(=O)O)C(=O)c2ccccc2C1=O`: the AC50 was 10.3 µM.

`COc1ccc(CN(CCC(c2ccccc2)c2ccc(OC(C)C)cc2)C(=O)CCl)cc1OC` (stereo not drawn): the AC50 is 0.569 µM.

For the molecule `CCOC(=O)c1c(CSC(=N)N)n(-c2ccccc2)c2cc(Br)c(OC(C)=O)cc12`, the AC50 is 23.6 µM.

With `O=c1[nH]cc(N=Cc2cc([N+](=O)[O-])ccc2O)c(=O)[nH]1`, the AC50 is > 38 µM (inactive).

Take `O=C1/C(=C/Nc2cccc([N+](=O)[O-])c2)CCc2ccccc21`: the AC50 was > 38 µM (inactive).

On to `CC(C)NC(=S)NC1(C)CCS(=O)(=O)C1` (stereo not drawn), for which the AC50 is > 38 µM (inactive).

As for `COc1ccc(N2C(=O)CSC23C(=O)N2c4c(cccc43)C(C)=CC2(C)C)cc1` (stereo not drawn), the AC50 was 30.8 µM.

For `COc1ccc(CNC(=O)c2c(C)oc3c2C(=O)c2ccccc2C3=O)cc1`, the AC50 was 14.3 µM.

Consider `N#Cc1cc([N+](=O)[O-])ccc1NC(=O)COC(=O)CCC1CCCCC1`, for which the half-maximal activity concentration (AC50) was 15.1 µM.

`CCSC1(SCC)N=C(N)C2(C#N)C(c3ccc(F)cc3)C12C#N` (stereo not drawn): the AC50 was 38.3 µM.

Take `Cn1cnc([N+](=O)[O-])c1Oc1cccc2ccccc12`: the AC50 was > 38 µM (inactive).

As for `Cc1ccc(C)c(NC2=C(Cl)C(=O)OC2OC(=O)c2ccco2)c1` (stereo not drawn), the AC50 was > 38 µM (inactive).

Turning to `CCN(CC)CCN1C(=O)c2cccc3cc(N)cc(c23)C1=O`, the AC50 was 1.69 µM.

Regarding `COC(=O)c1cccc(-c2ccc(C(c3c(C)[nH][nH]c3=O)c3c(C)[nH][nH]c3=O)o2)c1`, the AC50 is 3.29 µM.

In the case of `CCN1CCN(c2c(Cl)cccc2NC(=O)c2ccc3c(c2)OCCO3)CC1`, the AC50 is > 38 µM (inactive).

Consider `O=c1[nH]cc(N=Cc2cc(Cl)cc(Cl)c2O)c(=O)[nH]1`, for which the AC50 was > 38 µM (inactive).

On to `CCOC(=O)c1cnc(N)nc1C(F)(F)F`, for which the AC50 is > 38 µM (inactive).

For the molecule `CC(=O)Nc1ccc(S(=O)(=O)NC2=C(N3CCN(c4ccc(F)cc4)CC3)C(=O)c3ccccc3C2=O)cc1`, the AC50 was 26.7 µM.

Regarding `O=[N+]([O-])c1ccc(O)c2ncccc12`, the AC50 was 6.6 µM.

For `COc1ccc(OC)c(N2C(=O)C(Cl)=C(N3CCOCC3)C2=O)c1`, the AC50 is > 38 µM (inactive).

In the case of `COC(=O)c1[nH]c(=O)c2ccccc2c1O`, the AC50 is 12.1 µM.

As to `O=c1c(Cl)c(NCCCO)cnn1-c1nc2ccccc2[nH]1`, the AC50 was > 38 µM (inactive).

For `CC(C)(C)c1cnnn1-c1ccc(C(=O)CCl)cc1`, the AC50 was > 38 µM (inactive).

As to `Cc1cccc(CS(=O)(=O)c2ncc(Cl)c(C(=O)Nc3ccc(F)cc3)n2)c1`, the AC50 is > 38 µM (inactive).

In the case of `Cc1ccc(-n2nnnc2CCl)cc1`, the concentration at half-maximal activity (AC50) was 24 µM.

As to `Cc1ccsc1C=Nc1ccc(O)cc1`, the AC50 was > 38 µM (inactive).

`COc1ccc(NC(=S)NC(NC(=O)CCl)C(Cl)(Cl)Cl)c([N+](=O)[O-])c1` (stereo not drawn): the AC50 was 2.67 µM.

Consider `CCOc1ccc(N2C(=O)/C(=C\c3ccc(OC)c(O)c3)S(=O)(=O)C2c2cccc([N+](=O)[O-])c2)cc1` (stereo not drawn), for which the AC50 is > 38 µM (inactive).

For `Cc1ccc(-n2nc(C)c3c2OC(N)=C(C#N)C3c2ccc(F)cc2)cc1` (stereo not drawn), the AC50 was 26.5 µM.

Turning to `c1ccc(-c2ccc(C3CCCN3)cc2)cc1` (stereo not drawn), the AC50 was > 38 µM (inactive).

Turning to `O=C(Nc1cccc(F)c1)N1CCC(c2ccccc2)CC1`, the AC50 is > 38 µM (inactive).

With `[O-]C1=N/[N+](=C/c2ccccc2)CC1`, the AC50 was > 38 µM (inactive).

`O=C(NC1CCCC1)C(c1ccc(F)cc1)N(Cc1ccc(Cl)cc1)C(=O)CCl` (stereo not drawn): the concentration at half-maximal activity (AC50) was 5.55 µM.

Consider `O=C1C(=O)c2ccccc2-c2ccccc21`, for which the AC50 is 16.8 µM.

With `CCOc1ccc(CN(C)C(=O)CCl)cc1`, the AC50 is 11.1 µM.

Consider `CCc1ccc(NC(=O)CSc2ccc(-c3sc(C)nc3C)nn2)cc1`, for which the AC50 is > 38 µM (inactive).

Turning to `Cc1oc2c(c1C(=O)N1CCOCC1)C(=O)c1ccccc1C2=O`, the AC50 was 9.55 µM.

As for `CC1=NNC(=O)C1C(c1ccccc1)C1C(=O)NN=C1C` (stereo not drawn), the AC50 was 6.67 µM.

Consider `O=c1c2ccccc2nc2n1CCC2`, for which the AC50 is 22.9 µM.

Take `Cc1ccc(S(=O)(=O)/N=C2/C=C(C3C(=O)CC(C)(C)CC3=O)C(=O)c3ccccc32)cc1`: the AC50 is > 38 µM (inactive).

Take `COC(=O)CSc1nc2sc3c(c2c(=O)n1C1CCCCC1)CCN(C)C3`: the AC50 was > 38 µM (inactive).

Take `CCOc1ccc(Cl)cc1C(c1c(C)[nH][nH]c1=O)c1c(C)[nH][nH]c1=O`: the AC50 was 12 µM.

As for `COc1ccc(N2C(=O)C(Cl)=C(N3CCN(Cc4ccccc4)CC3)C2=O)cc1`, the AC50 is > 38 µM (inactive).

On to `c1cncc(CNc2ncnc3sc4c(c23)CCCC4)c1`, for which the AC50 was > 38 µM (inactive).

For the molecule `Cc1ccc(SC(=O)c2c(C)noc2-c2cc(C)on2)cc1`, the AC50 was > 38 µM (inactive).

Regarding `Cc1ccccc1-c1cc2c(nn1)-c1ccccc1C2=O`, the AC50 was 8.26 µM.

As for `CCCc1[nH][nH]c(=O)c1C(c1ccc(Br)cc1)C(C#N)C#N` (stereo not drawn), the AC50 is 32.2 µM.

As to `Cc1cc(=O)n(C2CCS(=O)(=O)C2)[nH]1` (stereo not drawn), the concentration at half-maximal activity (AC50) is 3.63 µM.

Turning to `c1ccc(-c2nc(N3CCCCCC3)nc(-n3ccnc3)n2)cc1`, the AC50 was > 38 µM (inactive).

`Cc1cc(C)c(S(C)(=O)=O)c(Oc2cccc(C(F)(F)F)c2)n1`: the AC50 is > 38 µM (inactive).

In the case of `O=C1C(Cl)=C(NS(=O)(=O)c2ccc([N+](=O)[O-])cc2)C(=O)c2ccccc21`, the AC50 is 10.3 µM.

`CC(=O)NC1C(=O)N(CCN2CCOCC2)c2ccc(C)cc21` (stereo not drawn): the AC50 is 21.6 µM.

Turning to `COc1cc(NCCCCCCCN)c2ncccc2c1`, the half-maximal activity concentration (AC50) was 13.6 µM.

For `CN(C)c1ccc(C(=O)n2nnc3ccccc32)cc1`, the AC50 is > 38 µM (inactive).

Regarding `CCCCCC(=O)O[C@]1(C(C)=O)CC[C@H]2[C@@H]3CCC4=CC(=O)CC[C@]4(C)[C@H]3CC[C@@]21C`, the concentration at half-maximal activity (AC50) was 2.02 µM.

Regarding `COC(CN(C(=O)CCl)C(C(=O)NC1CCCC(C)C1C)c1ccc(C)cc1)OC` (stereo not drawn), the AC50 was 10.9 µM.

`CCCc1nn(C)c2c1C(c1cccnc1)C(C#N)=C(N)O2` (stereo not drawn): the AC50 was > 38 µM (inactive).

Regarding `COc1cc(NC(C)CCCN)c2ncccc2c1Oc1ccccc1` (stereo not drawn), the AC50 was 15.2 µM.

Take `O=C(CSCc1ccc([N+](=O)[O-])cc1)N/N=C/c1cccnc1`: the AC50 was > 38 µM (inactive).

Regarding `Cc1[nH]n(-c2ccccc2)c(=O)c1/C=C1/C=c2ccccc2=N1`, the AC50 was > 38 µM (inactive).

Source of the values: PubChem BioAssay AID449750 (Broad Institute, 2010).
